Assay results: patent US9034884B2, “Heterocyclic-substituted pyrrolopyridines and pyrrolopyrimidines as JAK inhibitors” (Incyte Corporation, priority 2010, dated 2015)

Key:
[1] = biological target: T1, JAK2 (a.a. 828-1132) catalytic domain (Homo sapiens, UniProt O60674); assay: In vitro JAK kinase assay (HTRF, phosphorylation of biotinylated peptide), JAK2; assay type: biochemical; conditions: ATP 1 mM
T1 construct: JAK2 (a.a. 828-1132); His tag (N); made in house; host or cells: insect cells (baculovirus)
T1 sequence (O60674 828-1132): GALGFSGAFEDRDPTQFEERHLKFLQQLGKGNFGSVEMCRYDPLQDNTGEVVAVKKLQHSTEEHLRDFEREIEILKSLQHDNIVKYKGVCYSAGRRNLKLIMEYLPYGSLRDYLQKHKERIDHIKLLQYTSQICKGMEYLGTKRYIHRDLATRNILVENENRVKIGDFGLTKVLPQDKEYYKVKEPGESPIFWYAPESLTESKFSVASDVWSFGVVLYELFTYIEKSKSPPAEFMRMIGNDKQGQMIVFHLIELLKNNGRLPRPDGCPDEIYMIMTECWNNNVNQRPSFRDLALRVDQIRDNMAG
Description: Compounds herein were tested for inhibitory activity of JAK targets according to the following in vitro assay described in Park et al., Analytical Biochemistry 1999, 269, 94-104. The catalytic domains of human JAK1 (a.a. 837-1142) and JAK2 (a.a. 828-1132) with an N-terminal His tag were expressed using baculovirus in insect cells and purified. The catalytic activity of JAK1 and JAK2 was assayed by measuring the phosphorylation of a biotinylated peptide. The phosphorylated peptide was detected by homogenous time resolved fluorescence (HTRF). […] For the 1 mM IC50 measurements, ATP concentration in the reactions was 1 mM. Reactions were carried out at room temperature for 1 hour and then stopped with 20 μL 45 mM EDTA, 300 nM SA-APC, 6 nM Eu-Py20 in assay buffer (Perkin Elmer, Boston, Mass.). Binding to the Europium labeled antibody took place for 40 minutes and HTRF signal was measured on a Fusion plate reader (Perkin Elmer, Boston, Mass.). See Tables A and B for data related to compounds of the invention (at 1 mM). Data is indicated as ranges, wherein “+” is less than 5 nM; “++” is 5 nM to 25 nM; “+++” is greater than 25 nM to 100 nM; and “++++” is greater than 100 nM.

[2] = biological target: T2, human JAK1 (a.a. 837-1142) catalytic domain (Homo sapiens, UniProt P23458); assay: In vitro JAK kinase assay (HTRF, phosphorylation of biotinylated peptide), JAK1; assay type: biochemical; conditions: ATP 1 mM
T2 construct: human JAK1 (a.a. 837-1142); His tag (N); made in house; host or cells: insect cells (baculovirus)
T2 sequence (P23458 849-1154): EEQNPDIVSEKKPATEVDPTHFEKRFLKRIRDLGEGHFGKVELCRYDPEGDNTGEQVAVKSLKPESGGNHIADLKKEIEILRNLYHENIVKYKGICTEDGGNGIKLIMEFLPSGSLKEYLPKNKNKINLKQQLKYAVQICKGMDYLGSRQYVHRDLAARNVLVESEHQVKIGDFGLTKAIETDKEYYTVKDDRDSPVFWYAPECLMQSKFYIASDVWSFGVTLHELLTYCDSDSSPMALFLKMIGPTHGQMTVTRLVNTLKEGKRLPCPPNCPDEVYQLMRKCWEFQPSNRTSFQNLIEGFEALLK
Description: Compounds herein were tested for inhibitory activity of JAK targets according to the following in vitro assay described in Park et al., Analytical Biochemistry 1999, 269, 94-104. The catalytic domains of human JAK1 (a.a. 837-1142) and JAK2 (a.a. 828-1132) with an N-terminal His tag were expressed using baculovirus in insect cells and purified. The catalytic activity of JAK1 and JAK2 was assayed by measuring the phosphorylation of a biotinylated peptide. The phosphorylated peptide was detected by homogenous time resolved fluorescence (HTRF). […] For the 1 mM IC50 measurements, ATP concentration in the reactions was 1 mM. Reactions were carried out at room temperature for 1 hour and then stopped with 20 μL 45 mM EDTA, 300 nM SA-APC, 6 nM Eu-Py20 in assay buffer (Perkin Elmer, Boston, Mass.). Binding to the Europium labeled antibody took place for 40 minutes and HTRF signal was measured on a Fusion plate reader (Perkin Elmer, Boston, Mass.). […] Data is indicated as ranges, wherein “+” is less than 5 nM; “++” is 5 nM to 25 nM; “+++” is greater than 25 nM to 100 nM; and “++++” is greater than 100 nM.

SMILES	IC50 ([1]; Table A) [nM]	IC50 ([2]; Table A) [nM]	IC50 ([1]; Table B) [nM]	IC50 ([2]; Table B) [nM]
CCNC(=O)c1cc(F)cc(OC2CCN(CC(CC#N)n3cc(-c4ncnc5[nH]ccc45)cn3)CC2)c1 (stereo not drawn) [Example 9, 3-[(1-{3-Cyano-2-[4-(7H-pyrrolo[2,3-d]pyrimidin-4-yl)-1H-pyrazol-1-yl]propyl}piperidin-4-yl)oxy]-N-ethyl-5-fluorobenzamide]	5 to 25	< 5		
C[C@H]1CCCN1Cc1cc(F)cc(OC2CCN(CC(CC#N)n3cc(-c4ncnc5[nH]ccc45)cn3)CC2F)c1 (single isomer, unassigned) [Example 33 diastereomer 2]			25 to 100	< 5
CC(C)(C)NC(=O)c1cc(F)cc(OC2CCN(CC(CC#N)n3cc(-c4ncnc5[nH]ccc45)cn3)CC2)c1 (stereo not drawn) [Example 15, N-(tert-Butyl)-3-[(1-{3-cyano-2-[4-(7H-pyrrolo[2,3-d]pyrimidin-4-yl)-1H-pyrazol-1-yl]propyl}piperidin-4-yl)oxy]-5-fluorobenzamide tris(trifluoroacetate)]	< 5	< 5		
N#CCC(CN1CCC(Oc2cc(F)cc(C(=O)N3CCOCC3)c2)CC1)n1cc(-c2ncnc3[nH]ccc23)cn1 (stereo not drawn) [Example 18, 4-{4-[3-Fluoro-5-(morpholin-4-ylcarbonyl)phenoxy]piperidin-1-yl}-3-[4-(7H-pyrrolo[2,3-d]pyrimidin-4-yl)-1H-pyrazol-1-yl]butanenitrile]	5 to 25	< 5		
N#CCC(CN1CCC(Oc2cc(F)cc(C(=O)NCCN3CCOCC3)c2)CC1)n1cc(-c2ncnc3[nH]ccc23)cn1 (stereo not drawn) [Example 16, 3-[(1-{3-Cyano-2-[4-(7H-pyrrolo[2,3-d]pyrimidin-4-yl)-1H-pyrazol-1-yl]propyl}piperidin-4-yl)oxy]-5-fluoro-N-(2-morpholin-4-ylethyl)benzamide tris(trifluoroacetate)]	5 to 25	< 5		
N#CCC(CN1CCC(Oc2cc(F)cc(C(=O)NC3CC3)c2)CC1)n1cc(-c2ncnc3[nH]ccc23)cn1 (stereo not drawn) [Example 10, 3-[(1-{3-Cyano-2-[4-(7H-pyrrolo[2,3-d]pyrimidin-4-yl)-1H-pyrazol-1-yl]propyl}piperidin-4-yl)oxy]-N-cyclopropyl-5-fluorobenzamide]	5 to 25	< 5		
N#CCC(CN1CCC(Oc2cc(F)cc(C#N)c2)C(F)C1)n1cc(-c2ncnc3[nH]ccc23)cn1 (single isomer, unassigned) [Example 31 diastereomer 1, 3-[(1-{3-Cyano-2-[4-(7H-pyrrolo[2,3-d]pyrimidin-4-yl)-1H-pyrazol-1-yl]propyl}-3-fluoropiperidin-4-yl)oxy]-5-fluorobenzonitrile (two diastereomers)]			25 to 100	5 to 25
N#CCC(CN1CCC(Oc2cc(F)cc(CN3CCCCC3)c2)CC1)n1cc(-c2ncnc3[nH]ccc23)cn1 (stereo not drawn) [Example 25, 4-{4-[3-fluoro-5-(piperidin-1-ylmethyl)phenoxy]piperidin-1-yl}-3-[4-(7H-pyrrolo[2,3-d]pyrimidin-4-yl)-1H-pyrazol-1-yl]butanenitrile]	5 to 25	< 5		
N#CCC(CN1CCC(Oc2cc(F)cc(C#N)c2)CC1)n1cc(-c2ncnc3[nH]ccc23)cn1 (stereo not drawn) [Example 6, 3-[(1-{3-Cyano-2-[4-(7H-pyrrolo[2,3-d]pyrimidin-4-yl)-1H-pyrazol-1-yl]propyl}piperidin-4-yl)oxy]-5-fluorobenzonitrile tris(trifluoroacetate)]	25 to 100	< 5		
N#CCC(CN1CCC(Oc2cc(F)cc(C(=O)N3CCCC3)c2)CC1)n1cc(-c2ncnc3[nH]ccc23)cn1 (stereo not drawn) [Example 13, 4-{4-[3-Fluoro-5-(pyrrolidin-1-ylcarbonyl)phenoxy]piperidin-1-yl}-3-[4-(7H-pyrrolo[2,3-d]pyrimidin-4-yl)-1H-pyrazol-1-yl]butanenitrile tris(trifluoroacetate)]	5 to 25	< 5		
N#CCC(CN1CCC(Oc2cc(F)cc(C#N)c2)C(F)C1)n1cc(-c2ncnc3[nH]ccc23)cn1 (single isomer, unassigned) [Example 31 diastereomer 2, 3-[(1-{3-Cyano-2-[4-(7H-pyrrolo[2,3-d]pyrimidin-4-yl)-1H-pyrazol-1-yl]propyl}-3-fluoropiperidin-4-yl)oxy]-5-fluorobenzonitrile (two diastereomers)]			25 to 100	< 5
C[C@H]1CCCN1Cc1cc(F)cc(OC2CCN(CC(CC#N)n3cc(-c4ncnc5[nH]ccc45)cn3)CC2)c1 (stereo partly drawn) [Example 29, 4-[4-(3-fluoro-5-{[(2S)-2-methylpyrrolidin-1-yl]methyl}phenoxy)piperidin-1-yl]-3-[4-(7H-pyrrolo[2,3-d]pyrimidin-4-yl)-1H-pyrazol-1-yl]butanenitrile]	25 to 100	< 5		
